Results from patent EP4692083A1, “NOVEL AZABICYCLE DERIVATIVES AND PHARMACEUTICAL COMPOSITION FOR INHIBITING AUTOTAXIN, COMPRISING SAME” (Nextgen Bioscience Co., Ltd., priority 2023, dated 2024).

Molecular target: human Autotaxin protein (Homo sapiens, UniProt Q13822)
Test: Evaluation of the inhibitory activity against human Autotaxin protein (18:1 LysoPC substrate, choline assay kit, absorbance at 570 nm)
Assay type: biochemical
Details: at 500nM compound, 2 hours at 37 °C, read-out: Inhibition rate (%, at 500nM)
Experimental: Solutions of each synthesized compound (80 uM, 100% dimethyl sulfoxide) were sequentially diluted 5-fold with dimethyl sulfoxide to prepare 6 concentrations. Each concentration of the compound was diluted 2-fold with 1x test buffer (50 mM Tris-Cl (pH 8.0), 5 mM KCl, 1 mM CaCl2, 1 mM MgCl2, 140 mM NaCl, deionized water, 1 mg/mL BSA), and 1 uL (1.25% dimethylsulfoxide) of the diluted mixture was dispensed into each well of a 96-well clear round-bottom plate. 9 uL of 1x test buffer was added, and 20 uL of 240 nM human autotaxin protein (buffer: 50 mM Tris-HCl, pH 8.0, with 150 mM sodium chloride and 20% glycerol) was added. 10 uL of sonicated 360 uM 18:1 LysoPC (diluted with 1x assay buffer) was added. The reaction was performed for 2 hours in a shaking incubator at 37 °C, and a secondary reaction mixture (choline assay kit, KA1662) (65 uL of 1x assay buffer: 1 uL of choline oxidase: 1 uL of dye probe) was prepared. 60 uL of the secondary reaction mixture was added to the plate where the reaction was performed, and incubated for 30 minutes in a shaker. The absorbance value was measured at a wavelength of 570 nm using a SpectraMax iD3 microplate reader. The percentage inhibition activity value (% inhibition) was calculated by the formula: (1 - absorbance value test group / absorbance value control group) X 100.

- inhibition at 0.5 µM: 3.5%
Structure (SMILES): O=C(O)C[C@@H]1[C@H]2CN(c3nnc(-c4cnc(NCCc5ccc(Cl)cc5)nc4)o3)C[C@@H]12 [Example 51, 2-((1R,5S,6s)-3-(5-(2-((4-Chlorophenethyl)amino)pyrimidin-5-yl)-1,3,4-oxadiazol-2-yl)-3-azabicyclo[3.1.0]hexan-6-yl)acetic acid]
